Test results published in patent publication US6313095A, “Antiherpes tetrapeptide derivatives having a substituted aspartic acid side chain” (Boehringer Ingelheim (Canada), Ltd., priority 1989, dated 2001).
Where a SMILES comes first, the peptide text is derived from it. [ ]: non-standard residue; d: D form. The star is where a group is joined. ξ: configuration not given here. Asp(3,3-(CH2)4) = N[C@H](C(=O)O)C1(C(=O)O)CCCC1; Gly(1-COOH-cBu) = N[C@H](C(=O)O)C1(C(=O)O)CCC1; cPrCO(2,2,3,3-Me4) = CC1(C)C(C(=O)*)C1(C)C; X1 = CC1CCC(C)C(C(=O)*)C1C(=O)OCCc1ccccc1; Benzoyl(2-Ph) = O=C(c1ccccc1-c1ccccc1)*; ξAsp(3,3-Me2) = CC(C)(C(=O)O)C(N)C(=O)O; X3 = O=C(CCc1ccccc1)C1CCCCC1C(=O)*; Pentanoyl(4-Me) = CC(C)CCC(=O)*; X5 = CC(C)C(CCCCc1ccccc1)C(=O)*; Butanoyl(2-Et) = CCC(CC)C(=O)*; O(2S-octyl) = CCCCCC[C@H](C)O*; Tle = CC(C)(C)[C@H](N)C(=O)O; Leu(ol) = CC(C)C[C@H](N)CO; Hiv = CC(C)[C@H](O)C(=O)O; Isovaleryl = CC(C)CC(=O)*; Morpholide = C1CN(*)CCO1; Pyrrolidide = C1CCN(*)C1; X4 = CC1CCCC(C)C1C(=O)*; X6 = CCCCCCCCN(C)*; Bn = c1ccc(C*)cc1; NEt2 = CCN(CC)*

Molecular target: T1, HSV-1 ribonucleotide reductase (Human herpesvirus 1, UniProt P08543)
T1 construct: HSV-1 ribonucleotide reductase (partially purified) was obtained from quiescent BHK-21/C13 cells infected with strain F HSV-1 virus; endogenous in cells; host or cells: quiescent BHK-21/C13 (hamster) cells infected with HSV-1 strain F; partially purified enzyme preparation
T1 sequence (P08543 whole entry): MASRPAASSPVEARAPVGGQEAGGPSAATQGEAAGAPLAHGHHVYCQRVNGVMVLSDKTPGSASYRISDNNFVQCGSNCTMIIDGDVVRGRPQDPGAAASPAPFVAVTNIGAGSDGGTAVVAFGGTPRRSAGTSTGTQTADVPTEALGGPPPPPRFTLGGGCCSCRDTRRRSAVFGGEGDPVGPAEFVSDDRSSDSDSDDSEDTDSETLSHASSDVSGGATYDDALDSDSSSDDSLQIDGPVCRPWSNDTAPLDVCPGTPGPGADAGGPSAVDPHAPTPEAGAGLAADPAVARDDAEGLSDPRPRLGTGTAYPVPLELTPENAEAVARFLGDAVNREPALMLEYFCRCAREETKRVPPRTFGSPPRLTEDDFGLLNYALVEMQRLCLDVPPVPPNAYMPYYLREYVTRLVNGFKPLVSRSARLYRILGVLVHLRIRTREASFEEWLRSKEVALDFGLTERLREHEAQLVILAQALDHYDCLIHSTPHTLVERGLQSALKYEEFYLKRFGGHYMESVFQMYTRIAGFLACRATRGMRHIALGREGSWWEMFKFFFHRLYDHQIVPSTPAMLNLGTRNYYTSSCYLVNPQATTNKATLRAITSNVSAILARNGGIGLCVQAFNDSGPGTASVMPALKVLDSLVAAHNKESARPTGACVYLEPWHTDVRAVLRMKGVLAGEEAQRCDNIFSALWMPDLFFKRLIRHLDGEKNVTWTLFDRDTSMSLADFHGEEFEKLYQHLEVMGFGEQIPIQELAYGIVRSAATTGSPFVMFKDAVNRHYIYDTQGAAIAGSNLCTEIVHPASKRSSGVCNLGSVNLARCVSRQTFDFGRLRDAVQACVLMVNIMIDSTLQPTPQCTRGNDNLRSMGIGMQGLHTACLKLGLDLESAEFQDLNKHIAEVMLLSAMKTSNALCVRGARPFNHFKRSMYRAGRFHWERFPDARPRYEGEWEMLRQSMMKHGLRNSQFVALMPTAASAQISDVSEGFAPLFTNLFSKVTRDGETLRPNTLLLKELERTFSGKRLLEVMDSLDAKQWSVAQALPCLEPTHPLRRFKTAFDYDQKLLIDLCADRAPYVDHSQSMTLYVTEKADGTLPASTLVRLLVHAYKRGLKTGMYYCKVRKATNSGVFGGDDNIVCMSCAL
Test: Inhibition of Herpes Simplex Virus (HSV, Type 1) Ribonucleotide Reductase
Format: biochemical, herpes simplex virus type 1 (strain F)
Conditions: concentration producing 50% of the maximal inhibition of enzyme activity; partially purified enzyme; mean of four assays
Description: Inhibition of Herpes Simplex Virus (HSV, Type 1) Ribonucleotide Reductase
HSV-1 ribonucleotide reductase (partially purified) was obtained from quiescent BHK-21/C13 cells infected with strain F HSV-1 virus at 10 plaque forming units/cell as described by E. A. Cohen et al., J. Gen. Virol., 66, 733 (1985).
b) Assay and Results for Exemplified Peptides
By following the procedure described by P. Gaudreau et al., J. Biol, Chem., 262, 12413 (1987), the assay results listed in the following table were obtained. The assay result for each peptide is expressed as the concentration of the peptide producing 50% of the maximal inhibition (IC50) of enzyme activity. The number of units of the enzyme preparation used in each assay was constant, based on the specific activity of the enzyme preparation. The results are relative to the activity obtained in control experiments without peptide and represent the mean of four assays that varied less than 10% with each other.

Compound	IC50
CCC(CC)C(=O)N[C@H](C(=O)N[C@@H](CC(=O)N1CCCC1)C(=O)N[C@@H](CC(=O)O)C(=O)NCCC(C)(C)C)C1CCCC1 [(C2 H5)2 CHCO-Cpg-Asp(pyrrolidino)-Asp-NHCH2 CH2 C(CH)3]	35000 nM
CCC(CC)C(=O)N[C@H](C(=O)N[C@@H](CC(=O)N1CCCC1)C(=O)N[C@@H](CC(=O)O)C(=O)NCCC(C)(C)C)c1ccccc1 [(C2 H5)2 CHCO-Phg-Asp(pyrrolidino)-Asp-NHCH2 CH2 C(CH3)3]	40000 nM
CCC(CC)C(=O)N[C@H](C(=O)N[C@@H](CC(=O)N1CCCC1)C(=O)N[C@@H](CC(=O)O)C(=O)NCCC(C)(C)C)[C@@H](C)OC [(C2 H5)2 CHCO-Thr(OMe)-Asp(pyrrolidino)-Asp-NHCH2 CH2 C(CH3)3]	75000 nM
CCC(CC)C(=O)N[C@H](C(=O)N[C@@H](CC(=O)N1CCCC1)C(=O)N[C@@H](CC(=O)O)C(=O)N[C@@H](CC(C)C)C(=O)O)[C@@H](C)OCc1ccccc1 [(C2 H5)2 CHCO-Thr(OBz)-Asp(pyrrolidino)-Asp-Leu-OH] ({Butanoyl(2-Et)}-T(Bn)D(Pyrrolidide)DL-OH)	3400 nM
CC[C@H](C)[C@H](NC(=O)C(CCCCc1ccccc1)C(C)C)C(=O)N[C@@H](CC(=O)N1CCCC1)C(=O)N[C@@H](CC(=O)O)C(=O)N[C@@H](CC(C)C)C(=O)O (stereo partly drawn) [[d,1-Ph(CH2)4 -CH[CH(CH3)2 ]CO]-Ile-Asp(pyrrolidino)-Asp-Leu-OH] (X5-ID(Pyrrolidide)DL-OH)	1300 nM
CC[C@H](C)[C@H](NC(=O)CCC(C)C)C(=O)N[C@@H](CC(=O)N1CCCC1)C(=O)N[C@@H](CC(=O)O)C(=O)N[C@@H](CC(C)C)C(=O)O [(CH3)2 CHCH2 CH2 CO-Ile-Asp(pyrrolidino)-Asp-Leu-OH] ({Pentanoyl(4-Me)}-ID(Pyrrolidide)DL-OH)	3000 nM
CCCCCCCCN(C)C(=O)C[C@H](NC(=O)[C@@H](NC(=O)C(CC)CC)C(C)(C)C)C(=O)N[C@H](C(=O)N[C@@H](CC(C)C)C(=O)O)C1(C(=O)O)CCC1 [(C2 H5)2 CHCO-Tbg-Asp(N-Me-N-octyl)-Asp(cyBu)-Leu-OH] ({Butanoyl(2-Et)}-[Tle]D(X6)[Gly(1-COOH-cBu)]L-OH)	200 nM
CC(C)C[C@H](NC(=O)[C@H](CC(=O)O)NC(=O)[C@H](CC(=O)N1CCCC1)NC(=O)[C@@H](NC(=O)[C@@H](O)C(C)C)C(C)(C)C)C(=O)O [[(S)-(CH3)2 CHCH(OH)CO]-Tbg-Asp(pyrrolidino)-Asp-Leu-OH] (H-[Hiv][Tle]D(Pyrrolidide)DL-OH)	2800 nM
CC[C@H](C)[C@H](NC(=O)c1ccccc1-c1ccccc1)C(=O)N[C@@H](CC(=O)N1CCOCC1)C(=O)N[C@@H](CC(=O)O)C(=O)N[C@@H](CC(C)C)C(=O)O [2-Biphenylylcarbonyl-Ile-Asp(morpholino)-Asp-Leu-OH] ({Benzoyl(2-Ph)}-ID(Morpholide)DL-OH)	7200 nM
CCCCC(C(=O)O)[C@H](NC(=O)[C@H](CC(=O)N1CCCC1)NC(=O)[C@@H](NC(=O)C(CC)CC)C(C)(C)C)C(=O)N[C@@H](CC(C)C)C(=O)O (stereo partly drawn) [(C2 H5)2 CHCO-Tbg-Asp(pyrrolidino)-Asp(Bu)-Leu-OH]	2000 nM
CCC(CC)C(=O)N[C@H](C(=O)N[C@@H](CC(=O)N1CCCC1)C(=O)N[C@@H](CC(=O)O)C(=O)N[C@H](CO)[C@@H](C)CC)C(C)(C)C [(C2 H5)2 CHCO-Tbg-Asp(pyrrolidino)-Asp-(L-isoleucinol)]	11000 nM
CC[C@H](C)[C@H](NC(=O)c1ccccc1-c1ccccc1)C(=O)N[C@@H](CC(=O)N1CCCC1)C(=O)N[C@@H](CC(=O)O)C(=O)N[C@@H](CC(C)C)c1nnn[nH]1 [2-Biphenylcarbonyl-Ile-Asp(pyrrolidino)-Asp-NHCH--[CH2 CH(CH3)2-5-1H-tetrazole]	13800 nM
CC[C@H](C)[C@H](NC(=O)C1C(C)CCCC1C)C(=O)N[C@@H](CC(=O)N1CCCC1)C(=O)N[C@@H](CC(=O)O)C(=O)N[C@@H](CC(C)C)C(=O)O (stereo partly drawn) [(2,6-Dimethylcyclohexyl)carbonyl-Ile-Asp(pyrrolidino)-Asp-Leu-OH] (X4-ID(Pyrrolidide)DL-OH)	2100 nM
CCC(CC)C(=O)N[C@H](C(=O)N[C@@H](CC(=O)N1CCCC1)C(=O)N[C@@H](CC(=O)O)C(=O)N[C@H](CO)CC1CCCCC1)C(C)(C)C [(C2 H5)CHCO-Tbg-Asp(pyrrolidino)-Asp-NH--CH(cyclohexylmethyl)CH2 OH]	10500 nM
CCCCCC[C@H](C)OC(=O)C[C@H](NC(=O)[C@@H](NC(=O)CCC(C)C)[C@@H](C)CC)C(=O)N[C@@H](CC(=O)O)C(=O)N[C@@H](CC(C)C)C(=O)O [(CH3)2 CHCH2 CH2 CO-Ile-Asp(1-methylheptyloxy)-Asp-Leu-OH] ({Pentanoyl(4-Me)}-ID(O(2S-octyl))DL-OH)	> 10000 nM
CC[C@H](C)[C@H](NC(=O)C1C(C)(C)C1(C)C)C(=O)N[C@@H](CC(=O)N1CCCC1)C(=O)N[C@@H](CC(=O)O)C(=O)N[C@@H](CC(C)C)C(=O)O [(2,2,3,3-Tetramethylcyclopropyl)carbonyl-Ile-Asp(pyrrolidino)-Asp-Leu-OH] ({cPrCO(2,2,3,3-Me4)}-ID(Pyrrolidide)DL-OH)	1400 nM
CCC(CC)C(=O)N[C@H](C(=O)N[C@@H](CC(=O)N1CCCC1)C(=O)N[C@H](C(=O)N[C@@H](CC(C)C)C(=O)O)C(CC)(CC)C(=O)O)C(C)(C)C [(C2 H5)2 CHCO-Tbg-Asp(pyrrolidino)-Asp(diEt)-Leu-OH]	100 nM
CC[C@H](C)[C@H](NC(=O)CC(C)C)C(=O)N[C@@H](CC(=O)N1CCCC1)C(=O)N[C@@H](CC(=O)O)C(=O)N[C@@H](CC(C)C)C(=O)O [(CH3)2 CHCH2 CO-Ile-Asp(pyrrolidino)-Asp-Leu-OH] (Isovaleryl-ID(Pyrrolidide)DL-OH)	2700 nM
CC[C@H](C)[C@H](NC(=O)c1ccccc1-c1ccccc1)C(=O)N[C@@H](CC(=O)N1CCCC1)C(=O)N[C@@H](CC(=O)O)C(=O)N[C@@H](CC(C)C)C(=O)O [2-Biphenylylcarbonyl-Ile-Asp(pyrrolidino)-Asp-Leu-OH] ({Benzoyl(2-Ph)}-ID(Pyrrolidide)DL-OH)	3600 nM
CCC(CC)C(=O)N[C@H](C(=O)N[C@@H](CC(=O)N1CCCC1)C(=O)N[C@@H](CC(=O)O)C(=S)N[C@@H](CC(C)C)C(=O)O)C(C)(C)C [(C2 H5)2 CHCO-Tbg-Asp(pyrrolidino)-Asp.PSI.[CSNH]Leu-OH]	1900 nM
CCCCCC[C@H](C)OC(=O)C[C@H](NC(=O)[C@@H](NC(=O)C(CC)CC)C(C)(C)C)C(=O)N[C@H](C(=O)N[C@@H](CC(C)C)C(=O)O)C1(C(=O)O)CCC1 [(C2 H5)2 CHCO-Tbg-Asp(1-methylheptyloxy)-Asp(cyBu)-Leu-OH] ({Butanoyl(2-Et)}-[Tle]D(O(2S-octyl))[Gly(1-COOH-cBu)]L-OH)	500 nM
CCCCCC[C@H](C)OC(=O)C[C@H](NC(=O)[C@@H](NC(=O)C(CC)CC)C(C)(C)C)C(=O)N[C@H](C(=O)N[C@@H](CC(C)C)C(=O)O)C1(C(=O)O)CCCC1 [(C2 H5)2 CHCO-Tbg-Asp(1-methylheptyloxy)-Asp(cyPn)-Leu-OH] ({Butanoyl(2-Et)}-[Tle]D(O(2S-octyl))[Asp(3,3-(CH2)4)]L-OH)	370 nM
CCC(CC)C(=O)N[C@H](C(=O)N[C@@H](CC(=O)N1CCCC1)C(=O)N[C@H](C(=O)N[C@H](CO)CC(C)C)C1(C(=O)O)CCCC1)C(C)(C)C [(C2 H3)2 CHCO-Tbg-Asp(pyrrolidino)-Asp(cyPn)-(L-leucinol)] ({Butanoyl(2-Et)}-[Tle]D(Pyrrolidide)[Asp(3,3-(CH2)4)][Leu(ol)])	500 nM
CCC(CC)C(=O)N[C@@H](Cc1cccs1)C(=O)N[C@@H](CC(=O)N1CCCC1)C(=O)N[C@@H](CC(=O)O)C(=O)NCCC(C)(C)C [(C2 H5)2 CHCO-NHCH(2-thienylmethyl)CO-Asp(pyrrolidino)-Asp-NHCH2 CH2 C(CH3)3]	60000 nM

Same assay, conditions: separated diastereoisomer, first eluted on HPLC (footnotes 1, 3); mean of four assays

Compound	IC50
CC[C@H](C)[C@H](NC(=O)C1CCCCC1C(=O)CCc1ccccc1)C(=O)N[C@@H](CC(=O)N(CC)CC)C(=O)N[C@@H](CC(=O)O)C(=O)N[C@@H](CC(C)C)C(=O)O (stereo partly drawn) [[(d,1)-2-(3-Phenyl-1-oxopropyl)cyclohexanecarbonyl]-Ile-Asp(NEt2)-Asp-Leu-OH] (X3-ID(NEt2)DL-OH)	1400 nM
CC[C@H](C)[C@H](NC(=O)C1C(C)CCC(C)C1C(=O)OCCc1ccccc1)C(=O)N[C@@H](CC(=O)N1CCCC1)C(=O)N[C@@H](CC(=O)O)C(=O)N[C@@H](CC(C)C)C(=O)O (stereo partly drawn) [[(d,1)1α,2α,3β,6β-3,6-Dimethyl-2-(phenylethoxycarbonyl)cyclohexanecarbonyl]-Ile-Asp(pyrrolidino)-Asp-Leu-OH] (X1-ID(Pyrrolidide)DL-OH)	500 nM

Same assay, conditions: separated diastereoisomer, first value listed (footnote 5, order not stated); mean of four assays

Compound	IC50
CCC(CC)C(=O)N[C@H](C(=O)N[C@@H](CC(=O)N1CCCC1)C(=O)NC(C(=O)N[C@@H](CC(C)C)C(=O)O)C(C)(C)C(=O)O)C(C)(C)C (stereo partly drawn) [(C2 H5)2 CHCO-Tbg-Asp(pyrrolidino)-Asp(diMe)-Leu-OH] ({Butanoyl(2-Et)}-[Tle]D(Pyrrolidide)[ξAsp(3,3-Me2)]L-OH)	140 nM

Same assay, conditions: separated diastereoisomer, second eluted on HPLC (footnotes 1, 3); mean of four assays

Compound	IC50
CC[C@H](C)[C@H](NC(=O)C1CCCCC1C(=O)CCc1ccccc1)C(=O)N[C@@H](CC(=O)N(CC)CC)C(=O)N[C@@H](CC(=O)O)C(=O)N[C@@H](CC(C)C)C(=O)O (stereo partly drawn) [[(d,1)-2-(3-Phenyl-1-oxopropyl)cyclohexanecarbonyl]-Ile-Asp(NEt2)-Asp-Leu-OH] (X3-ID(NEt2)DL-OH)	34000 nM
CC[C@H](C)[C@H](NC(=O)C1C(C)CCC(C)C1C(=O)OCCc1ccccc1)C(=O)N[C@@H](CC(=O)N1CCCC1)C(=O)N[C@@H](CC(=O)O)C(=O)N[C@@H](CC(C)C)C(=O)O (stereo partly drawn) [[(d,1)1α,2α,3β,6β-3,6-Dimethyl-2-(phenylethoxycarbonyl)cyclohexanecarbonyl]-Ile-Asp(pyrrolidino)-Asp-Leu-OH] (X1-ID(Pyrrolidide)DL-OH)	2300 nM

Same assay, conditions: separated diastereoisomer, second value listed (footnote 5, order not stated); mean of four assays

Compound	IC50
CCC(CC)C(=O)N[C@H](C(=O)N[C@@H](CC(=O)N1CCCC1)C(=O)NC(C(=O)N[C@@H](CC(C)C)C(=O)O)C(C)(C)C(=O)O)C(C)(C)C (stereo partly drawn) [(C2 H5)2 CHCO-Tbg-Asp(pyrrolidino)-Asp(diMe)-Leu-OH] ({Butanoyl(2-Et)}-[Tle]D(Pyrrolidide)[ξAsp(3,3-Me2)]L-OH)	9100 nM
